In US10138255B2, “Piperazine derivatives as HIV protease inhibitors” (Merck Sharp & Dohme Corp., priority 2014, dated 2018):

test system: HIV-1 (H9IIIB strain); experiment: Cell-Based HIV Infection Assay Using a Reporter (MT4-GFP cells); conditions: Human immunodeficiency virus 1, inflection point (IP) of viral growth inhibition; MT4-GFP cells infected with HIV-1 H9IIIB; 50% normal human serum; mean of at least two independent experiments; read-out: Cell Based IP (50% NHS)
In short: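 MT4-GFP cells (HIV LTR-driven GFP) bulk-infected with HIV-1 H9IIIB at low MOI for 24 h, washed, then exposed to compounds in RPMI plus 50% normal human serum, 0.4% DMSO. Infected cells counted at 24 and 48 h; R0 = 48 h/24 h ratio, inhibition normalised to DMSO and triple-drug control; IP from 4-parameter fit.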

Structure (SMILES)	EC50 [µM]
CC(C)Oc1ccc([C@H](c2ccc(Cl)cc2)[C@H](N)C(=O)Nc2cccc(F)c2CCC2CNC3CCCS(=O)(=O)N2C3)cn1 (stereo partly drawn) [Example 11, (βS)-4-Chloro-N-{2-[2-(2,2-dioxido-2-thia-1,7-diazabicyclo[4.3.1]dec-9-yl)ethyl]-3-fluorophenyl}-β-[6-(1-methylethoxy)pyridin-3-yl]-L-phenylalaninamide]	0.004
N[C@H](C(=O)Nc1cccc(F)c1CC[C@H]1CN[C@@H]2CCCS(=O)(=O)N1C2)C1(c2ccc(Cl)cc2)CCNCC1 [Example 185, (2S)-2-amino-2-[4-(4-chlorophenyl)piperidin-4-yl]-N-(2-{2-[(6R,9S)-2,2-dioxido-2-thia-1,7-diazabicyclo[4.3.1]dec-9-yl]ethyl}-3-fluorophenyl)ethanamide]	3.3
COC(=O)N[C@H](C(=O)Nc1cccc(F)c1CCC1CNC2CCCS(=O)(=O)N1C2)[C@H](c1ccnc(OC)c1)c1ccc(Cl)c(F)c1 (stereo partly drawn) [Example 69, methyl [(1S,2R)-2-(4-chloro-3-fluorophenyl)-1-({2-[2-(2,2-dioxido-2-thia-1,7-diazabicyclo[4.3.1]dec-9-yl)ethyl]-3-fluorophenyl}carbamoyl)-2-(2-methoxypyridin-4-yl)ethyl]carbamate]	0.013
COC(=O)N[C@H](C(=O)Nc1ccc(F)c(F)c1CC[C@H]1CN[C@@H]2CCCS(=O)(=O)N1C2)[C@@H](c1ccc(F)cc1)[C@H]1CC[C@H](OC)CC1 [Example 26, Methyl ((2S,3R)-1-((2-(2-((6R,9S)-2,2-dioxido-2-thia-1,7-diazabicyclo[4.3.1]decan-9-yl)ethyl)-3,4-difluorophenyl)amino)-3-(4-fluorophenyl)-3-((1r,4R)-4-methoxycyclohexyl)-1-oxopropan-2-yl)carbamate]	0.011
COC(=O)N[C@H](C(=O)Nc1cccc(F)c1CCC1CNC2CCCS(=O)(=O)N1C2)[C@@H](c1ccc(Cl)cc1)c1ccc(=O)n(C(C)C)c1 (stereo partly drawn) [Example 101, methyl {(1S,2S)-2-(4-chlorophenyl)-1-({2-[2-(2,2-dioxido-2-thia-1,7-diazabicyclo[4.3.1]dec-9-yl)ethyl]-3-fluorophenyl}carbamoyl)-2-[1-(1-methylethyl)-6-oxo-1,6-dihydropyridin-3-yl]ethyl}carbamate]	0.059
COC(=O)N[C@H](C(=O)Nc1cccc(C(F)(F)F)c1CC[C@H]1CN[C@@H]2CCCS(=O)(=O)N1C2)[C@@H](c1ccc(F)cc1)C1C[C@@H](C)O[C@@H](C)C1 (stereo partly drawn) [Example 203, methyl [(1S,2R)-2-[(2R,6S)-2,6-dimethyltetrahydro-2H-pyran-4-yl]-1-{[2-{2-[(6R,9S)-2,2-dioxido-2-thia-1,7-diazabicyclo[4.3.1]dec-9-yl]ethyl}-3-(trifluoromethyl)phenyl]carbamoyl}-2-(4-fluorophenyl)ethyl]carbamate]	0.15
COC(=O)N[C@H](C(=O)Nc1cccc(F)c1CC[C@H]1CNC2CCCS(=O)(=O)N1C2)C1(c2ccc(F)cc2)CCC(F)(F)CC1 (stereo partly drawn) [Example 41, methyl {(1S)-1-[4,4-difluoro-1-(4-fluorophenyl)cyclohexyl]-2-[(2-{2-[(9S)-2,2-dioxido-2-thia-1,7-diazabicyclo[4.3.1]dec-9-yl]ethyl}-3-fluorophenyl)amino]-2-oxoethyl}carbamate]	0.043
COC(=O)N[C@H](C(=O)Nc1cccc(F)c1CCC1CNC2CCCS(=O)(=O)N1C2)[C@@H](c1ccc(F)cc1)c1ccc2c(c1)CCC2 (stereo partly drawn) [Example 34, Methyl [(1S,2S)-2-(2,3-dihydro-1H-inden-5-yl)-1-({2-[2-(2,2-dioxido-2-thia-1,7-diazabicyclo[4.3.1]dec-9-yl)ethyl]-3-fluorophenyl}carbamoyl)-2-(4-fluorophenyl)ethyl]carbamate]	0.023
CC(F)(F)c1ccc([C@H](c2ccc(Cl)cc2)[C@H](N)C(=O)Nc2cccc(F)c2CC[C@H]2CN[C@@H]3CCCS(=O)(=O)N2C3)cn1 [Example 12, (2S,3S)-2-amino-3-(4-chlorophenyl)-3-(6-(1,1-difluoroethyl)pyridin-3-yl)-N-(2-(2-((6R,9S)-2,2-dioxido-2-thia-1,7-diazabicyclo[4.3.1]decan-9-yl)ethyl)-3-fluorophenyl)propanamide]	0.0059
N[C@H](C(=O)Nc1cccc(F)c1CCC1CNC2CCCS(=O)(=O)N1C2)[C@@H](c1ccc(Cl)cc1)C1CCOCC1 (stereo partly drawn) [Example 36, (βR)-4-chloro-N-{2-[2-(2,2-dioxido-2-thia-1,7-diazabicycio[4.3.1]dec-9-yl)ethyl]-3-fluorophenyl}-β-(tetrahydro-2H-pyran-4-yl)-L-phenylalaninamide]	0.022
COC(=O)N[C@@H](C(=O)N[C@H]1CCC[C@@H]1CC[C@H]1CN[C@@H]2CCCS(=O)(=O)N1C2)[C@@H](c1ccc(Cl)cc1)C1CCN(C(=O)OCc2ccccc2)CC1 [Example 137, benzyl 4-{(1R,2R)-1-(4-chlorophenyl)-3-{[(1S,2R)-2-{2-[(6R,9S)-2,2-dioxido-2-thia-1,7-diazabicyclo[4.3.1]dec-9-yl]ethyl}cyclopentyl]amino}-2-[(methoxycarbonyl)amino]-3-oxopropyl}piperidine-1-carboxylate]	1.3
Cn1nc(C(F)(F)F)cc1[C@H](c1ccc(Cl)cc1)[C@H](N)C(=O)Nc1cccc(F)c1CC[C@H]1CN[C@@H]2CCCS(=O)(=O)N1C2 [Example 261, (βR)-4-chloro-N-(2-{2-[(6R,9S)-2,2-dioxido-2-thia-1,7-diazabicyclo[4.3.1]dec-9-yl]ethyl}-3-fluorophenyl)-β-[1-methyl-3-(trifluoromethyl)-1H-pyrazol-5-yl]-L-phenylalaninamide]	0.0087
COC(=O)N[C@H](C(=O)Nc1cccc(F)c1OCC1CNC2CCCS(=O)(=O)N1C2)[C@@H](c1ccc(F)cc1)c1cc(F)cc(F)c1 (stereo partly drawn) [Example 85, methyl [(1S,2S)-2-(3,5-difluorophenyl)-1-({2-[(2,2-dioxido-2-thia-1,7-diazabicyclo[4.3.1]dec-9-yl)methoxy]-3-fluorophenyl}carbamoyl)-2-(4-fluorophenyl)ethyl]carbamate]	0.15
CC(C)Oc1ccc(C(c2ccc(Cl)cc2)[C@H](N)C(=O)Nc2cncc(F)c2CC[C@H]2CN[C@@H]3CCCS(=O)(=O)N2C3)cn1 (stereo in doubt) [Example 240, (2S,3R)-2-amino-3-(4-chlorophenyl)-N-(4-(2-((6R,9S)-2,2-dioxido-2-thia-1,7-diazabicyclo[4.3.1]decan-9-yl)ethyl)-5-fluoropyridin-3-yl)-3-(6-isopropoxypyridin-3-yl)propanamide]	0.0084
Cn1nc(C(F)(F)F)cc1[C@H](c1ccc(Cl)c(F)c1)[C@H](N)C(=O)Nc1cccc(F)c1CC[C@H]1CN[C@@H]2CCCS(=O)(=O)N1C2 [Example 267, (βR)-4-chloro-N-(2-{2-[(6R,9S)-2,2-dioxido-2-thia-1,7-diazabicyclo[4.3.1]dec-9-yl]ethyl}-3-fluorophenyl)-3-fluoro-β-[1-methyl-3-(trifluoromethyl)-1H-pyrazol-5-yl]-L-phenylalaninamide]	0.008
CC(C)[C@H](c1ccc(Cl)cc1)[C@H](N)C(=O)N[C@H]1CCCC[C@@H]1CC[C@H]1CN[C@@H]2CCCS(=O)(=O)N1C2 [Example 161, (βR)-4-chloro-N-[(1S,2R)-2-{2-[(6R,9S)-2,2-dioxido-2-thia-1,7-diazabicyclo[4.3.1]dec-9-yl]ethyl}cyclohexyl]-β-(1-methylethyl)-L-phenylalaninamide]	0.078
COC(=O)N[C@H](C(=O)Nc1cccc(F)c1CC[C@H]1CN[C@@H]2CCCS(=O)(=O)N1C2)[C@@H](c1ccc(F)cc1)[C@H]1CC[C@H](OC)CC1 [Example 117, methyl [(1S)-2-[(2-{2-[(6R,9S)-2,2-dioxido-2-thia-1,7-diazabicyclo[4.3.1]dec-9-yl]ethyl}-3-fluorophenyl)amino]-1-{(R)-(4-fluorophenyl)[(1r,4R)-4-methoxycyclohexyl]methyl}-2-oxoethyl]carbamate]	0.005
Cn1nc(C(F)(F)F)cc1[C@H](c1ccc(Cl)cc1)[C@H](N)C(=O)Nc1cncc(F)c1CC[C@H]1CN[C@@H]2CCCS(=O)(=O)N1C2 [Example 262, (βR)-4-chloro-N-(4-{2-[(6R,9S)-2,2-dioxido-2-thia-1,7-diazabicyclo[4.3.1]dec-9-yl]ethyl}-5-fluoropyridin-3-yl)-β-[1-methyl-3-(trifluoromethyl)-1H-pyrazol-5-yl]-L-phenylalaninamide]	0.022
C[C@@H]1CC([C@H](c2ccc(F)cc2)[C@H](N)C(=O)Nc2ccc(F)c(F)c2CC[C@H]2CN[C@@H]3CCCS(=O)(=O)N2C3)C[C@H](C)O1 (stereo partly drawn) [Example 166, (βR)-β-[(2R,6S)-2,6-dimethyltetrahydro-2H-pyran-4-yl]-N-(2-{2-[(6R,9S)-2,2-dioxido-2-thia-1,7-diazabicyclo[4.3.1]dec-9-yl]ethyl}-3,4-difluorophenyl)-4-fluoro-L-phenylalaninamide]	0.025
N[C@H](C(=O)Nc1cncc(F)c1CC[C@H]1CN[C@@H]2CCCS(=O)(=O)N1C2)[C@@H](c1ccc(Cl)cc1)C1CCCC(F)(F)C1 (stereo partly drawn) [Example 272, (βR)-4-chloro-β-(3,3-difluorocyclohexyl)-N-(4-{2-[(6R,9S)-2,2-dioxido-2-thia-1,7-diazabicyclo[4.3.1]dec-9-yl]ethyl}-5-fluoropyridin-3-yl)-L-phenylalaninamide]	0.0057
COC(=O)N[C@H](C(=O)Nc1cccc(F)c1CCC1CNC2CCCS(=O)(=O)N1C2)[C@@H](c1ccc(Cl)cc1)c1ccc(C(C)(F)F)nc1 (stereo partly drawn) [Example 116, methyl [(1S,2S)-2-(4-chlorophenyl)-2-[6-(1,1-difluoroethyl)pyridin-3-yl]-1-({2-[2-(2,2-dioxido-2-thia-1,7-diazabicyclo[4.3.1]dec-9-yl)ethyl]-3-fluorophenyl}carbamoyl)ethyl]carbamate]	0.018
